Reference: ChEMBL document CHEMBL1201862, “PubChem BioAssay data set” (2004)
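The compound was tested at five concentrations on cells cultured in 96-well plates, with a 48-hour exposure period. GI50 is the concentration that inhibits growth by half.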 The source made the active and inactive calls. Rule as the data show it: active = GI50 up to about 1.1 µM and inactive = higher.

Columns and labels:
Experiment in all cases: NCI anticancer screen, dose series, 48 h
HCT-15 = test system: HCT-15
MDA-MB-231 = test system: MDA-MB-231
U-251 = test system: U-251
OVCAR-5 = test system: OVCAR-5
SW-620 = test system: SW-620
RPMI-8226 = test system: RPMI-8226
MDA-N = test system: MDA-N
A498 = test system: A498
SK-OV-3 = test system: SK-OV-3
HCC 2998 = test system: HCC 2998
UO-31 = test system: UO-31
HOP-62 = test system: HOP-62
IGROV-1 = test system: IGROV-1
NCI-H23 = test system: NCI-H23
SK-MEL-2 = test system: SK-MEL-2
NCI-H226 = test system: NCI-H226
K562 = test system: K562
HL-60 = test system: HL-60
SF-539 = test system: SF-539
NCI/ADR-RES = test system: NCI/ADR-RES

Structure (SMILES)	GI50 (HCT-15) [µM]	GI50 (MDA-MB-231)	GI50 (U-251)	GI50 (OVCAR-5)	GI50 (SW-620)	GI50 (RPMI-8226)	GI50 (MDA-N)	GI50 (A498)	GI50 (SK-OV-3)	GI50 (HCC 2998)	GI50 (UO-31)	GI50 (HOP-62)	GI50 (IGROV-1)	GI50 (NCI-H23)	GI50 (SK-MEL-2)	GI50 (NCI-H226)	GI50 (K562)	GI50 (HL-60)	GI50 (SF-539)	GI50 (NCI/ADR-RES)
COc1ccc(S(=O)(=O)N/N=C/C(=O)O)cc1	542	822 µM (inactive)	499 µM (inactive)	873 µM (inactive)	485 µM (inactive)	269 µM (inactive)	760 µM (inactive)	495 µM (inactive)	971 µM (inactive)	607 µM (inactive)	631 µM (inactive)	678 µM (inactive)	427 µM (inactive)	369 µM (inactive)	428 µM (inactive)	624 µM (inactive)	501 µM (inactive)	185 µM (inactive)	519 µM (inactive)	490 µM (inactive)
CCOC(=O)c1ccc(C(=O)/C(C#N)=C2\CCCN2)[nH]1	> 100	> 100 µM (inactive)	> 100 µM (inactive)	> 100 µM (inactive)	79.4 µM (inactive)	> 100 µM (inactive)	30.1 µM (inactive)	> 100 µM (inactive)	> 100 µM (inactive)	> 100 µM (inactive)	> 100 µM (inactive)	> 100 µM (inactive)	> 100 µM (inactive)	> 100 µM (inactive)	97.1 µM (inactive)	> 100 µM (inactive)	52.6 µM (inactive)	66.5 µM (inactive)	> 100 µM (inactive)	78.3 µM (inactive)
O=P1(O)c2ccccc2Nc2cc(C(F)(F)F)ccc21	> 100	> 100 µM (inactive)	> 100 µM (inactive)	> 100 µM (inactive)	> 100 µM (inactive)	> 100 µM (inactive)	> 100 µM (inactive)	> 100 µM (inactive)	> 100 µM (inactive)	> 100 µM (inactive)	> 100 µM (inactive)	> 100 µM (inactive)	> 100 µM (inactive)	> 100 µM (inactive)	> 100 µM (inactive)	> 100 µM (inactive)	> 100 µM (inactive)	> 100 µM (inactive)	> 100 µM (inactive)	> 100 µM (inactive)
O=S(=O)(N=S(c1ccc(Cl)cc1)c1ccc(Cl)cc1)c1ccccc1	65.8	> 100 µM (inactive)	> 100 µM (inactive)	> 100 µM (inactive)	> 100 µM (inactive)	40.4 µM (inactive)	40.7 µM (inactive)	19.7 µM (inactive)	> 100 µM (inactive)	> 100 µM (inactive)	45.1 µM (inactive)	> 100 µM (inactive)	> 100 µM (inactive)	63.4 µM (inactive)	> 100 µM (inactive)	> 100 µM (inactive)	46.8 µM (inactive)	27.5 µM (inactive)	> 100 µM (inactive)	63 µM (inactive)
CC[C@H]1C=CCC[C@@]2(C[C@@H]3CC[C@@H]4[C@H](C(=O)OCCCCCCCCCCCCCCCC(=O)N(CCCNC(C)=O)C[C@H](CCNC(C)=O)OC(C)=O)[C@]5(CCC[C@@H](C)O5)NC(=[N+]34)N2)O1	0.904	0.0914 µM (active)	0.0538 µM (active)	0.0557 µM (active)	0.264 µM (active)	0.0312 µM (active)	0.0466 µM (active)	0.435 µM (active)	1.43 µM (inactive)	0.023 µM (active)	1.2 µM (inactive)	0.494 µM (active)	0.0583 µM (active)	0.583 µM (active)	0.0404 µM (active)	0.229 µM (active)	0.168 µM (active)	0.0745 µM (active)	0.26 µM (active)	2.74 µM (inactive)
COc1cc([C@@H]2c3cc4c(cc3[C@@H](/N=C/c3ccc(C(=O)O[C@H]5C[C@H]6OC[C@@]6(OC(C)=O)[C@H]6[C@H](OC(=O)c7ccccc7)[C@]7(O)C[C@H](OC(=O)[C@H](OC(=O)c8ccc(/C=N/[C@@H]9c%10cc%11c(cc%10[C@@H](c%10cc(OC)c(O)c(OC)c%10)[C@H]%10C(=O)OC[C@@H]%109)OCO%11)cc8)[C@@H](NC(=O)c8ccccc8)c8ccccc8)C(C)=C([C@@H](OC(C)=O)C(=O)[C@]56C)C7(C)C)cc3)C3COC(=O)C32)OCO4)cc(C)c1O (stereo partly drawn)	19.2	> 25.2 µM (inactive)	13.3 µM (inactive)	> 15.5 µM (inactive)	13.4 µM (inactive)	> 50 µM (inactive)	1.82 µM (inactive)	5.16 µM (inactive)	9.2 µM (inactive)	> 50 µM (inactive)	–	12.7 µM (inactive)	14.7 µM (inactive)	17.2 µM (inactive)	13.7 µM (inactive)	10.9 µM (inactive)	2.19 µM (inactive)	> 13.9 µM (inactive)	7.23 µM (inactive)	15.2 µM (inactive)
CCN(CC)c1nc(=O)c(C(=O)C(C)(C)C)c(C(C)(C)C)o1	> 100	> 100 µM (inactive)	> 100 µM (inactive)	> 100 µM (inactive)	> 100 µM (inactive)	> 100 µM (inactive)	> 100 µM (inactive)	> 100 µM (inactive)	> 100 µM (inactive)	> 100 µM (inactive)	–	> 100 µM (inactive)	> 100 µM (inactive)	> 100 µM (inactive)	> 100 µM (inactive)	> 100 µM (inactive)	> 100 µM (inactive)	> 100 µM (inactive)	> 100 µM (inactive)	> 100 µM (inactive)
CN(C)CCOc1ccc(I)cc1Cc1ccccc1	12.2	3.89 µM (inactive)	12.4 µM (inactive)	14.7 µM (inactive)	14.2 µM (inactive)	6.34 µM (inactive)	5.31 µM (inactive)	13.9 µM (inactive)	18.6 µM (inactive)	3.29 µM (inactive)	7.69 µM (inactive)	13.9 µM (inactive)	4.6 µM (inactive)	4.05 µM (inactive)	15 µM (inactive)	15.9 µM (inactive)	3.39 µM (inactive)	4.74 µM (inactive)	13.8 µM (inactive)	13.8 µM (inactive)
Cc1ccc(C)n1-c1ccccc1C1SCCCS1	> 100	49.9 µM (inactive)	> 100 µM (inactive)	> 100 µM (inactive)	> 100 µM (inactive)	> 100 µM (inactive)	> 100 µM (inactive)	> 100 µM (inactive)	> 100 µM (inactive)	> 100 µM (inactive)	> 100 µM (inactive)	50.8 µM (inactive)	> 100 µM (inactive)	> 100 µM (inactive)	> 100 µM (inactive)	> 100 µM (inactive)	> 100 µM (inactive)	16.9 µM (inactive)	> 100 µM (inactive)	> 100 µM (inactive)
CC[C@@H](/C=C\CCC1(C[C@H](O)CCC=C(C)C)OCCO1)O[Si](C(C)C)(C(C)C)C(C)C	20.1	17.3 µM (inactive)	17.3 µM (inactive)	22 µM (inactive)	26.4 µM (inactive)	18.4 µM (inactive)	33.5 µM (inactive)	32.8 µM (inactive)	21.8 µM (inactive)	16.4 µM (inactive)	19.2 µM (inactive)	34.3 µM (inactive)	20.9 µM (inactive)	26.9 µM (inactive)	16.3 µM (inactive)	19.6 µM (inactive)	20 µM (inactive)	16.7 µM (inactive)	18.5 µM (inactive)	22.4 µM (inactive)
